Results published in patent publication US10624917B2, “Compositions and methods useful for treating or preventing liver diseases or disorders, and promoting weight loss” (YALE UNIVERSITY, priority 2014, dated 2020).

System: active caspase-1 / pro-IL-1β in PECs
Experiment: Western blot of caspase-1 and pro-IL-1β in PECs
Type: cell-based, mouse
Conditions: for up-regulation of Pro-IL-1β: 6 hours, FIG. 3C
Procedure: FIGS. 2A-2H illustrate the finding that adenosine mediates increase in IL-1β via the A2A receptor and amplifies signal 1 and signal 2 pathways. FIG. 2A: LPS primed PECs were treated with NECA (10 μM) in the presence or absence of […] different adenosine receptor antagonists for A1 (DPCPX, 10 nM), A2A (ZM 241385, 10 μM), A2B (MRS1706, 10 nM), A3 (MRS1523, 5 μM), or their combinations for 1 hour, and pulsed with ATP for 20 min. FIGS. 2A-2B: A2A receptor specific agonist (CGS21680) and antagonist ZM 241385 increase and block IL-1β production respectively. […] FIG. 2D: PEC's from A2A receptor deficient cells have low IL-1β production, which is not increased by NECA and CGS 21680. FIG. 2E: CGS21680 increases induction of Il1b mRNA expression, and this was decreased in A2A receptor deficient cells. FIG. 2F: Loss of the A2A receptor in macrophages results in much lower levels of Il1b protein A expression in response to LPS. FIG. 2G: CGS21680 and […] increases and decreases production of cleaved caspase-1, respectively. FIG. 2H: The production of cleaved caspase-1 is decreased in A2A receptor deficient macrophages. Data are expressed as the mean±SD from at least three independent experiments Immunoblots shown are representative results from at least three independent experiments. p<0.05 determined by Student's t-test.
FIGS. 3A-3I illustrate the finding that adenosine supersedes LPS induced tolerance and increases IL-1β production by upregulating transcription of pro-IL-1β via cAMP-PKA pathway. PECs were used in all of the following experiments. FIG. 3A: Primed (pri) with LPS (100 ng/ml) for 16 hours followed by stimulation (stim) with LPS (100 ng/ml), or NECA (10 μM) or CGS21680 (10 μM) in the presence or absence of LPS (100 ng/ml) for 6 hours. FIG. 3B: Treated with forskolin for 6 hours as indicated doses with and without LPS priming FIG. 3C: Treated with or without NECA (10 μM), CGS21680 (10 μM) or db-cAMP (200 μM) for 6 hours. FIG. 3D: LPS primed and treated with NECA or CGS21680 in the presence and absence of SQ22536, H89 and PKi. FIG. 3E: Primed with LPS for 16 hours and treated with ATP for 20 min, followed by CGS 21680 in the presence or absence of the adenylyl cyclase and PKA inhibitors SQ22536 and H-89. FIG. 3F: Primed with LPS and treated with or without NECA (10 μM) or db-cAMP (200 μM) for 6 hours. FIG. 3G: Treated with or without CGS21680 (10 μM) for 3 hours, and transcription was stopped by adding […] actinomycin D, and RNA samples collected at indicated times-points. FIG. 3H: LPS primed PECs obtained from wild type or A2AR-cKO mice were stimulated with NECA (10 μM) for 6 hours. The cells were harvested and RNA isolated after each treatment and the gene expression of Il1b and other genes as indicated quantified by real-time PCR using specific primers. FIG. 3I: Primed with LPS for 16 hours and treated with ATP for 20 min, followed by CGS 21680 in the presence or absence of SQ22536 or H-89 Immunoblot analysis of the proIL-1β caspase-1 in cell lysate was performed by specific […] and anti caspase-1 p10 antibodies (FIGS. 3C, 3E-3F, 3I). Data are expressed as the mean±SD from three independent experiments Immunoblots shown are representative results from at least three independent experiments. *p<0.05 determined by Student's t-test.
Liver tissue lysates or PECs were lysed in RIPA buffer (10 mM phosphate buffer pH 7.4, 150 mM NaCl, 1% NP-40, 0.5% sodium deoxycholate, 0.1% SDS) supplemented with complete protease inhibitor cocktail (Roche) and 2 mM dithiothreitol. Lysates were resolved in 4-12% Tris-glycine gradient gels (Invitrogen) and transferred to nitrocellulose (Invitrogen) by electro-blotting. The following antibodies were used: rabbit anti-caspase-1 p10 (SC-514, Santa Cruz), goat anti-mouse IL-1β (BAF401, R&D Systems), Rabbit antimouse HIF-1α (NB100-449, Novus Biologicals, Littleton, Colo.).

SMILES	up-regulation of Pro-IL-1β	active caspase-1 (compound alone)	active (cleaved) caspase-1 (in response to LPS/ATP)
CCNC(=O)[C@H]1O[C@@H](n2cnc3c(N)ncnc32)[C@H](O)[C@@H]1O [NECA, 5′-(N-ethylcarboxamido) adenosine]	induced up-regulation	–	–
CCNC(=O)[C@H]1O[C@@H](n2cnc3c(N)nc(NCCc4ccc(CCC(=O)O)cc4)nc32)[C@H](O)[C@@H]1O [CGS21680]	induced up-regulation	did not result in detectable active caspase-1	increases
